The record followed here is patent US11542266B1, “Substituted piperidines as BTK inhibitors” (HAISCO PHARMACEUTICALS PTE. LTD., priority 2019, dated 2023).

The test system of one test is SU-DHL-4 cells. The test can be described thus: Inhibition of cell proliferation, SU-DHL-4 cells (Cell Viability Assay, 72 h). The class given is cell-based, human. Particulars: inhibition rate at the highest concentration of the compound. As to the method:
(§1) SU-DHL-4, Mino, and SU-DHL-6 cells, in the culture medium of RPMI1640+10% FBS, were cultured in an incubator at 37° C. under 5% CO2. Cells were plated in a 96-well plate. Specifically, SU-DHL-4 cells were at 20000/well, Mino and SU-DHL-6 cells were at 5000/well, with 90 μL/well. 10 μL of the compounds at different concentrations were added to each well. There were 3 replicate wells for each concentration, and the last column, added with DMSO, was used as a vehicle control group. The cultures were continued for 72 hours at 37° C. under 5% CO2. After 72 hours, 100 μL of detection reagent (Cell Viability Assay, Promega, G7573) was added to each well, and the cultures were uniformly mixed for 2 minutes, and incubated at room temperature for 10 minutes. The fluorescence signal value was measured with a microplate reader (PHERAstar FSX). The IC50 value of the compound on cell proliferation inhibition was calculated using Origin 9.2 software, and the inhibition rate at the highest concentration of the compound (Max inhi. %) was calculated according to formula (1). Max inhi. %=(1-T72 administration/T72 vehicle)×100 Formula (1).

A further test deals with Mino cells. As to the kind of experiment: Inhibition of cell proliferation, Mino cells (Cell Viability Assay, 72 h). The class given is cell-based, human. The conditions noted are these: for Mino Max inhi. %: inhibition rate at the highest concentration of the compound; for IC50: Homo sapiens. As to the method:
as §1

Consider `Nc1ncnc2c1c(-c1ccc(Oc3ccccc3)cc1)nn2[C@@H]1CCCN(C2CCC(N3CC(Oc4ccc5c(c4)C(=O)N(C4CCC(=O)NC4=O)C5=O)C3)CC2)C1` (single isomer, unassigned) [Compound 34-a], for which, in the test with SU-DHL-4 cells, the “SU-DHL-4 Max inhi. %” value worked out at 94.4%.

Consider `Nc1ncnc2c1c(-c1ccc(Oc3ccccc3)cc1)nn2[C@@H]1CCCN(C2CCC(N3CC(Oc4ccc5c(c4)C(=O)N(C4CCC(=O)NC4=O)C5=O)C3)CC2)C1` (single isomer, unassigned) [Compound 34-b], for which, in the test with SU-DHL-4 cells, the “SU-DHL-4 Max inhi. %” value turned out to be 99.2%.

As to `Nc1ncnc2c1c(-c1ccc(Oc3ccccc3)cc1)nn2C1CCN(C2CCC3(CC2)CN(C2CN(c4ccc5c(c4)C(=O)N(C4CCC(=O)NC4=O)C5=O)C2)C3)CC1` (stereo not drawn) [Compound 56, 5-(3-(7-(4-(4-amino-3-(4-phenoxyphenyl)-1H-pyrazolo[3,4-d]pyrimidin-1-yl)piperidin-1-yl)-2-azaspiro[3.5]nonan-2-yl)azetidin-1-yl)-2-(2,6-dioxopiperidin-3-yl)isoindoline-1,3-dione], in the test on Mino cells, the “Mino Max inhi. %” value came out at 99.9%.

For `Nc1ncnc2c1c(-c1ccc(Oc3ccccc3)cc1)nn2C1CCN(C2CC3CCC(C2)N3C2CN(c3ccc4c(c3)C(=O)N(C3CCC(=O)NC3=O)C4=O)C2)CC1` (stereo not drawn) [Compound 57, 5-(3-(3-(4-(4-amino-3-(4-phenoxyphenyl)-1H-pyrazolo[3,4-d]pyrimidin-1-yl)piperidin-1-yl)-8-azabicyclo[3.2.1]octan-8-yl)azetidin-1-yl)-2-(2,6-dioxopiperidin-3-yl)isoindoline-1,3-dione], the “Mino Max inhi. %” value with Mino cells was 99.2%.

In the case of `Nc1ncnc2c1c(-c1ccc(Oc3ccccc3)cc1)nn2C1CCN(C2CC3CCC(C2)N3c2ccc3c(c2)C(=O)N(C2CCC(=O)NC2=O)C3=O)CC1` (stereo not drawn) [Compound 58, 5-(3-(4-(4-amino-3-(4-phenoxyphenyl)-1H-pyrazolo[3,4-d]pyrimidin-1-yl)piperidin-1-yl)-8-azabicyclo[3.2.1]octan-8-yl)-2-(2,6-dioxopiperidin-3-yl)isoindoline-1,3-dione], the “Mino Max inhi. %” value in the test on Mino cells was determined as 95.3%.

With `Nc1ncnc2c1c(-c1ccc(Oc3ccccc3)cc1)nn2C1CCN(C2C[C@@H]3CN(C4CN(c5ccc6c(c5)C(=O)N(C5CCC(=O)NC5=O)C6=O)C4)C[C@@H]3C2)CC1` (stereo partly drawn) [Compound 59, 5-(3-((3aR,6aS)-5-(4-(4-amino-3-(4-phenoxyphenyl)-1H-pyrazolo[3,4-d]pyrimidin-1-yl)piperidin-1-yl)hexahydrocyclopenta[c]pyrrol-2(1H)-yl)azetidin-1-yl)-2-(2,6-dioxopiperidin-3-yl)isoindoline-1,3-dione], in the test with Mino cells, half-maximal inhibition (IC50) was put at 0.501 µM.

Take `Nc1ncnc2c1c(-c1ccc(Oc3ccccc3)cc1)nn2C1CCN(C2CN(C3CN(C4CN(c5ccc6c(c5)C(=O)N(C5CCC(=O)NC5=O)C6=O)C4)C3)C2)CC1` (stereo not drawn) [Compound 60, 5-(3-(4-(4-amino-3-(4-phenoxyphenyl)-1H-pyrazolo[3,4-d]pyrimidin-1-yl)piperidin-1-yl)-[1,3′:1′,3″-terazetidin]-1H-yl)-2-(2,6-dioxopiperidin-3-yl)isoindoline-1,3-dione]: in the test with Mino cells, half-maximal inhibition (IC50) was put at 0.165 µM.

For `Nc1ncnc2c1c(-c1ccc(Oc3ccccc3)cc1)nn2C1CCN(C2CN(C3C[C@@H]4CN(c5ccc6c(c5)C(=O)N(C5CCC(=O)NC5=O)C6=O)C[C@@H]4C3)C2)CC1` (stereo partly drawn) [Compound 61, 5-((3aR,6aS)-5-(3-(4-(4-amino-3-(4-phenoxyphenyl)-1H-pyrazolo[3,4-d]pyrimidin-1-yl)piperidin-1-yl)azetidin-1-yl)hexahydrocyclopenta[c]pyrrol-2(1H)-yl)-2-(2,6-dioxopiperidin-3-yl)isoindoline-1,3-dione], the IC50 (in general, the midpoint of a concentration-inhibition curve) in the test with Mino cells came out at 0.1 µM.

With `Nc1ncnc2c1c(-c1ccc(Oc3ccccc3)cc1)nn2C1CCN(C2CN(C3CC4(CCN(c5ccc6c(c5)C(=O)N(C5CCC(=O)NC5=O)C6=O)CC4)C3)C2)CC1` (stereo not drawn) [Compound 62, 5-(2-(3-(4-(4-amino-3-(4-phenoxyphenyl)-1H-pyrazolo[3,4-d]pyrimidin-1-yl)piperidin-1-yl)azetidin-1-yl)-7-azaspiro[3.5]nonan-7-yl)-2-(2,6-dioxopiperidin-3-yl)isoindoline-1,3-dione], the IC50 in the test on Mino cells amounted to 0.038 µM.
